From patent US9254120B2, “Method for predicting breast cancer patient response to combination therapy” (Biodesix, Inc., priority 2011, dated 2016)
Read-outs that look alike come from different tables or passages of the source.

Tests used:
[1] = test system: first line metastatic breast cancer patients
Description: The total number of patients in this trial was 1258, 1164 pretreatment serum samples were available for analysis. We obtained valid VeriStrat test results for 1046 of these patients, of which 961 were classified as VeriStrat Good, 80 were VeriStrat Poor, and 5 were VeriStrat Indeterminate (Undefined) (patients for whom 3 replicate spectra produced discrepant results); 117 samples were not evaluable due to hemolysis and we could not assign a VeriStrat label to one patient due to data inconsistencies between available samples.
The classifier assigned a class label to the samples, either “Good” or “Poor” or in a few instances “undefined.” The class labels were assigned using a K-nearest neighbor (KNN) scoring algorithm based on a comparison of the spectra, after preprocessing and calculation of integrated intensity values at selected features in the spectra, with a training set of class-labeled spectra from other cancer patients.
In our retrospective analysis of the EGF30008 study, we obtained serum samples from the patients participating in the study, subjected them to our VeriStrat test, and the samples were assigned class labels of Good or Poor, depending on the outcome of the KNN algorithm in the classifier.
A Cox Proportional Hazard Model analysis was carried out including VeriStrat classification, treatment arm, and an interaction term between the two.

[2] = test system: advanced breast cancer patients; details: letrozole versus anastrozole; cited from earlier work
[3] = test system: early breast cancer patients; details: 5 years of treatment, versus tamoxifen, hormone receptor-positive women; cited from earlier work

Compound: CS(=O)(=O)CCNCc1ccc(-c2ccc3ncnc(Nc4ccc(OCc5cccc(F)c5)c(Cl)c4)c3c2)o1 [lapatinib]
- Patient outcome on addition of lapatinib to letrozole ([1]; VeriStrat Good group): little or no clinical benefit
- Patient outcome on addition of lapatinib to letrozole ([1]; VeriStrat Poor group): significantly improves patient outcome

Compound: N#Cc1ccc(C(c2ccc(C#N)cc2)n2cncn2)cc1 [letrozole]
- HR for PFS, VeriStrat Good vs VeriStrat Poor within the treatment arm (95% CI) ([1]; HER2+ patients): 0.29
- Median PFS ([1]; HER2+ patients, VeriStrat Good): 3.0 months
- Median PFS ([1]; HER2+ patients, VeriStrat Poor): 2.3 months
- HR for PFS, VeriStrat Good vs VeriStrat Poor within the treatment arm (95% CI) ([1]; HER2+ patients, listed as Let only): 0.29 (0.09-0.98)
- Median PFS ([1]; HER2- patients, VeriStrat Good): 13.6 months
- Median PFS ([1]; HER2- patients, VeriStrat Poor): 3.1 months
- HR for PFS, VeriStrat Good vs VeriStrat Poor within the treatment arm (95% CI) ([1]; HER2- patients, listed as Let only): 0.37 (0.21-0.64)
- HR for PFS, VeriStrat Good vs VeriStrat Poor within the treatment arm (95% CI) ([1]; HER2- patients, listed as letrozole+placebo): 0.37
- Median PFS ([1]; overall population, VeriStrat Good patients): 10.8 months
- Median PFS ([1]; overall population, VeriStrat Poor patients): 2.8 months
- HR for PFS, VeriStrat Good vs VeriStrat Poor within the treatment arm (95% CI) ([1]; overall population, listed as Let only): 0.36 (0.23-0.58)
- HR for PFS, VeriStrat Good vs VeriStrat Poor within the treatment arm (95% CI) ([1]; overall population, listed as letrozole+placebo): 0.36
- Overall response rate (ORR) [2]: significantly superior to anastrozole

Compound: CC(C)(C#N)c1cc(Cn2cncn2)cc(C(C)(C)C#N)c1 [anastrozole]
- Reduction in recurrence rates [3]: 26%
